Experiments:
[1] = tested on: primary striatal neurons co-cultured with activated astrocytes; experiment: Astrocyte-neuron co-culture: apoptosis of primary striatal neurons (caspase activity, Annexin V binding); assay type: cell-based, mouse; details: astrocytes co-treated with 25 nM for 8 hours, six hours of co-culture; FIG. 6 C-D
Protocol: Astrocyte Neuron Co-Culture. Cells were isolated as described above and astrocytes grown to confluence on permeable cell culture inserts (BD Biosciences, San Jose, Calif.) prior to treatment. Astrocytes were then treated with MPTP (10 μM), TNF-α (10 pg/ml) and IFN-γ (1 ng/ml) in the presence or absence of DIM-C-pPhtBu (10 μM), Rosiglitazone (10 μM) AMT (25 nM), or DMSO vehicle control for 8 hours. Media was then removed, and the astrocytes washed three times with sterile PBS to prevent carryover of treatment medium to the neurons, and the inserts were placed directly in each well over cultured neurons. Astrocyte-containing inserts were removed following six hours of co-culture, and neuronal caspase activity and phosphatidylserine translocation were measured by widefield fluorescence microscopy using the general cell permeable fluorescent caspase substrate rhodamine 110, bis-(L-aspartic acid amide) and an Annexin V Alexa Fluor 680 conjugate, respectively. Images were acquired using a Zeiss 20× air PlanApochromat objective and at least 10 microscopic fields were examined per treatment group over three independent experiments.
The efficacy of DIM-C-pPhtBu in preventing astrocyte-dependent neuronal apoptosis was examined in FIG. 6. Astrocytes were grown to confluence in cell culture inserts that are permeable to small molecules but prevent direct cell-cell contact. Following treatment of astrocytes with MPTP and TNF-α/IFN-γ in the presence or absence of DIM-C-pPhtBu (10 μM), rosiglitazone (10 μM), the NOS2 inhibitor AMT (25 nM), or DMSO, astrocytes were washed with PBS and co-incubated directly above primary striatal neurons in neurobasal medium. Indices of neuronal apoptosis were then measured using live-cell fluorescence imaging of caspase activity (FIG. 6A) and Annexin V binding (FIG. 6B). […] The DMSO vehicle control had no suppressive effect.
Differing letters denote statistical significance (p<0.05).

[2] = tested on: 3-nitrotyrosine protein nitration in astrocytes; experiment: Immunofluorescence of 3-nitrotyrosine adducts (protein nitration) in primary astrocytes treated with MPTP and cytokines; assay type: cell-based, mouse
Protocol: Immunofluorescence. Primary astrocytes were grown to confluence on 20 mm serum-coated glass coverslips and treated with saline or MPTP (10 μM), TNF-α (10 pg/ml), and IFN-γ (1 ng/ml) with or without DIM-C-pPhtBu (10 μM), rosiglitazone (10 μM), the NOS2 inhibitor AMT (25 nM) or NOS 1 inhibitor 7-NI (10 μM), or a DMSO vehicle control 8 hours prior to analysis. Immunofluorescence to confirm culture purity was conducted on cells grown to confluence on the 20 mm glass coverslips. Blocking and antibody hybridization was conducted in 1% BSA (w/v) in PBS, and all washes were conducted in PBS. Images were acquired using a Zeiss 20× air PlanApochromat objective and 6-8 microscopic fields were examined per treatment group over no less than three independent experiments. Fluorescent secondary antibodies were used to detect GFAP (488 nmcx/519 nmcm) and Iba1 or nitrosylated protein (647 nmcx/668 nmcm), respectively, while mounting medium containing DAPI (360 nmcx/460 nmcm) was used to identify cell nuclei.
The effect of NOS2 induction by MPTP and inflammatory cytokines on global protein nitration following NO/peroxynitrite (ONOO—) formation in astrocytes was examined by immunofluorescence (FIG. 3). Immunofluorescence using antibodies against GFAP (FITC) and 3-nitrotyrosine adducts (Cy5) was employed to measure the extent of protein nitration within astrocytes treated with MPTP and cytokines, with or without inclusion of DIM-C-pPhtBu (10 μM), rosiglitazone (10 μM), the high-affinity NOS2 inhibitor AMT (25 nM), the NOSI inhibitor 7-NI (10 μM) or a DMSO vehicle control. […] Co-treatment of astroytes with DIM-C-pPhtBu prevented MPTP-induced increases in nitration, resulting in similar levels of 3-nitrotyrosine adducts as saline-treated control cells (FIG. 3C). Mean intracellular fluorescence for 3-nitrotyrosine was quantified and compared between each treatment group (FIG. 3D).

CC1CCN=C(N)S1 (stereo not drawn) [AMT, 2-amino-5,6-dihydro-6-methyl-4H-1,3-thiazine]
Apoptosis in co-cultured striatal neurons (caspase activity and Annexin V-binding) [1]: prevented | MPTP-induced increase in 3-nitrotyrosine formation ([2]; 25 nM co-treatment, astrocytes, FIG. 3D): prevented | Protein nitration in primary astrocytes induced by MPTP and TNF-α/IFN-γ ([2]; FIG. 7(D), concentration not given): prevents protein nitration
